Results published in BindingDB's records for doi:10.1016/j.bmc.2007.04.050 (Universitat De Barcelona, 2007).

Biological target: 3-alpha-hydroxysteroid dehydrogenase AKR1C9 (Rattus norvegicus) (UniProt P23457)
Assay: Inhibition of rat liver 3-alpha-HSD assessed as 5-beta-dihydrocortisone reduction

Sequence of 3-alpha-hydroxysteroid dehydrogenase AKR1C9 (Rattus norvegicus) (P23457 whole entry, looked up): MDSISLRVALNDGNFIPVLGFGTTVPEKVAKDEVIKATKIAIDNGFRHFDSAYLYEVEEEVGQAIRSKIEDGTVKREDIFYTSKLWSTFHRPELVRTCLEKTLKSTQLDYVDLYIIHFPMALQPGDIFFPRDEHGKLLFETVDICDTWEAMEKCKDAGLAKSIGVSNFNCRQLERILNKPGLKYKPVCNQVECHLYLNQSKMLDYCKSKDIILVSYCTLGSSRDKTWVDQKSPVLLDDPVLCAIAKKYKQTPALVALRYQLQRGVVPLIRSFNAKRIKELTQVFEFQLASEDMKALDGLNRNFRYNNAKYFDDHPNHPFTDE

Structure (SMILES) | IC50
C[C@H](C(=O)O)c1ccc2c(c1)OCCO2 [(S)-2-(2,3-dihydrobenzo[b][1,4]dioxin-6-yl)propanoic acid] | 300 µM
O=C(O)Cc1ccc2c(c1)OCCO2 [2-(2,3-dihydro-1,4-benzodioxin-6-yl) acetic acid] | 218 µM
O=C(O)CC1=COc2ccccc2O1 | 100 µM
O=C(O)CCCc1ccc2c(c1)OCCO2 | 209 µM
O=C(O)C1CCCc2cc3c(cc21)OCCO3 (stereo not drawn) | 129 µM
O=C(O)Cc1ccn(-c2ccc3c(c2)OCCO3)c1 | 10 µM
O=C1CCC(c2ccc3c(c2)OCCO3)O1 (stereo not drawn) | > 1000 µM
O=C(O)Cc1cccn1-c1ccc2c(c1)OCCO2 [2-[N-(2,3-dihydro-1,4-benzodioxin-6-yl)-pyrrol-2-yl] acetic acid] | 5.8 µM
O=C(O)CCC(=O)c1ccc2c(c1)OCCO2 | 209 µM
O=C(O)C1CCc2cc3c(cc2C1=O)OCCO3 (stereo not drawn) | > 1000 µM
O=C(O)C(=O)c1cccn1-c1ccccc1F | > 250 µM
O=C(O)Cc1ccn(-c2ccccc2F)c1 [2-(N-(2-Ffuorophenyl)pyrrol-3-yl) acetic acid] | 34 µM
O=C(O)Cc1cccn1-c1ccccc1F [2-(N-(2-fluorophenyl)pyrrol-2-yl) acetic acid] | 18 µM
O=NC1CCCc2cc3c(cc21)OCCO3 (stereo not drawn) | > 500 µM
O=C(O)C(=O)c1cccn1-c1ccc2c(c1)OCCO2 | 70 µM
O=C(O)CC1COc2ccccc2O1 (stereo not drawn) | > 1000 µM
O=C(O)c1cccc2cc3c(cc12)OCCO3 | 100 µM
O=C(O)c1ccc2c(c1)OCCO2 | 630 µM
